From article PMC12012479, “Structural and functional characterization of the brain-specific dynamin superfamily member RNF112” (Proceedings of the National Academy of Sciences of the …, 2025)
Positions count from the first letter of the chain named.

Key:
RNF112T (xlRNF112T) [1] = target: T1, RNF112T (xlRNF112T) (Xenopus laevis, UniProt Q2VPQ0); test: ITC; assay type: binding; conditions: 5 mM MgCl2, 150 mM NaCl, pH 7.4, 25 °C
T1 construct: gene rnf112.2.L; GTPase domain + three-helix middle domain; His6-SUMO tag cut by ULP1; E. coli; monomer, dimer with GDP-AlF4-
T1 sequence (Q2VPQ0 120-541 limits assumed): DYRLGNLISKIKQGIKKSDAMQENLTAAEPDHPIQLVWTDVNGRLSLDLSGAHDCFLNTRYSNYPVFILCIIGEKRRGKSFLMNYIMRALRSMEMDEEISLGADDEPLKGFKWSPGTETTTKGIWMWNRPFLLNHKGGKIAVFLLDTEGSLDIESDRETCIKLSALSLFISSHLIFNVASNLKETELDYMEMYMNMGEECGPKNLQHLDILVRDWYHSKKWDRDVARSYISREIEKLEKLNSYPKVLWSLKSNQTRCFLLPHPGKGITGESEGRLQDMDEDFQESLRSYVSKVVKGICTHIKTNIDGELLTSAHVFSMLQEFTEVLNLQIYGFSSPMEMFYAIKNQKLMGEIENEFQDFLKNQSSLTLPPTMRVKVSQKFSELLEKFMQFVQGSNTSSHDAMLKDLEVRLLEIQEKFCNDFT
Description: ITC on RNF112T (xlRNF112T) | binding GTPγS and GDP with dissociation constants (Kd) in the micromolar range

RNF112T (xlRNF112T) [2] = target: T1, RNF112T (xlRNF112T); test: X-ray crystal structure (form […] from GTPγS, […] Å; form […] by soaking); assay type: binding; conditions: nucleotide pocket of GTPase domain
RNF112F [3] = target: T2, RNF112F (Xenopus laevis, UniProt Q2VPQ0, T240A, form not given); test: binding assay in SI Fig. S9; conditions: GTPase-deficient mutant
T2 construct: gene rnf112.2.L; near-full-length, residues 60 to 541 (RING, GTPase and middle domains); His6-SUMO tag cut by ULP1; E. coli; dimer with GDP-AlF4-
T2 sequence (Q2VPQ0 60-541 T240A): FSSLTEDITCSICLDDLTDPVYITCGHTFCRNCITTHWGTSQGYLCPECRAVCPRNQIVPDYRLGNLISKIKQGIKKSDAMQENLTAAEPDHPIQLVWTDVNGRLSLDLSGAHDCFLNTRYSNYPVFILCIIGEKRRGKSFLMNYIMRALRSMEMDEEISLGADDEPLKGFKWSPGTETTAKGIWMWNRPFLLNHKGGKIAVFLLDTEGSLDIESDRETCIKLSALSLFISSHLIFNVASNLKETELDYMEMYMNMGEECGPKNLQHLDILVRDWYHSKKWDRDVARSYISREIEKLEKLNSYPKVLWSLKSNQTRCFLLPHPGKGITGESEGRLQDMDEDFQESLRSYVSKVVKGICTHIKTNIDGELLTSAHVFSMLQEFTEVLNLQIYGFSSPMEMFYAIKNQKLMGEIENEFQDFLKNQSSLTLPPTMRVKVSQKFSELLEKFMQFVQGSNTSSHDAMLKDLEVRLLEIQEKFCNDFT

mouse RNF112T = target: T3, mouse RNF112T (Mus musculus, UniProt Q96DY5); test: GTP hydrolysis assay; assay type: biochemical; conditions: 1 mM GTP, 20 μM protein, 1 mM MnCl2, pH 7.0, 37 °C
T3 construct: gene Rnf112; truncated, GTPase domain + middle domain (borders not in main text); E. coli
T3 sequence (Q96DY5 170-563 limits assumed): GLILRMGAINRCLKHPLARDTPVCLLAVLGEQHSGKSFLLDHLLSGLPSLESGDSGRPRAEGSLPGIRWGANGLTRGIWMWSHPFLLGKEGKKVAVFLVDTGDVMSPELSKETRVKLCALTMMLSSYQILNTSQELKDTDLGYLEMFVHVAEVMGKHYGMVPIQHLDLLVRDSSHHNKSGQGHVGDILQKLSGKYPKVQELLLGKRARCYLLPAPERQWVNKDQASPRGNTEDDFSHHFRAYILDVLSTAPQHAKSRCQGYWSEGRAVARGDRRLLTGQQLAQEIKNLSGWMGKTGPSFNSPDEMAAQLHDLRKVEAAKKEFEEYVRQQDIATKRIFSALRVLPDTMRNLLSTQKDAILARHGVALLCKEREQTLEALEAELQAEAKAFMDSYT

RNF112F [4] = target: T4, RNF112F (Xenopus laevis, UniProt Q2VPQ0); test: GTP hydrolysis assay; assay type: biochemical; conditions: 1 mM GTP, 20 μM protein, 1 mM MnCl2, pH 7.0, 37 °C
T4 construct: gene rnf112.2.L; near-full-length, residues 60 to 541 (RING, GTPase and middle domains); His6-SUMO tag cut by ULP1; E. coli; dimer with GDP-AlF4-
T4 sequence (Q2VPQ0 60-541): T2 sequence (Q2VPQ0 60-541 T240A) with A181T

human RNF112T = target: T5, human RNF112T (Homo sapiens, UniProt Q9ULX5); test: GTP hydrolysis assay; assay type: biochemical; conditions: 1 mM GTP, 20 μM protein, 1 mM MnCl2, pH 7.0, 37 °C
T5 construct: gene RNF112; truncated, GTPase domain + middle domain (borders not in main text); E. coli
T5 sequence (Q9ULX5 150-540 limits assumed): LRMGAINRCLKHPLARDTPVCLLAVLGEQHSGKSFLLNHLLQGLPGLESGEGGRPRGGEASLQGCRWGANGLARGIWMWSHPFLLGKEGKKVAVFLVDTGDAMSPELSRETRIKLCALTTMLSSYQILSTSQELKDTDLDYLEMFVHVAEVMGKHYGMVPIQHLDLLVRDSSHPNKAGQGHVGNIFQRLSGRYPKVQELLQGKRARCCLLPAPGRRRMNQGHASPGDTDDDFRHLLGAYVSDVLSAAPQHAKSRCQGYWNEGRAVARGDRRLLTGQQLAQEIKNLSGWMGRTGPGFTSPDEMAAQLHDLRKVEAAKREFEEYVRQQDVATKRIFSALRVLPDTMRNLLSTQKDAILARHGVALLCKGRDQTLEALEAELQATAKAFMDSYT

[5] = target: near-full-length Xenopus laevis RNF112 containing residues 60 to 541 (RNF112F) (Xenopus laevis); test: SEC; analytical gel filtration in the presence of GDP•AlF4^−

Nc1nc2c(ncn2[C@@H]2O[C@H](COP(=O)(O)OP(=O)(O)O)[C@@H](O)[C@H]2O)c(=O)[nH]1 [GDP]
Kd (RNF112T (xlRNF112T) [1]): 14.4 ± 2.5 µM
X-ray crystal structure (form 1 from GTPγS, 2.2 Å; form 2 by soaking) (RNF112T (xlRNF112T) [2]): GDP-bound RNF112T structure derived from a nucleotide-free RNF112T crystal soaked with GDP

Nc1nc2c(ncn2[C@@H]2O[C@H](COP(=O)(O)OP(=O)(O)OP(=O)(O)O)[C@@H](O)[C@H]2O)c(=O)[nH]1 [GTP]
binding assay in SI Fig. S9 (RNF112F [3]): GTPase-deficient mutant RNF112F(T240A), which bound GTP but did not dimerize
GTP hydrolysis assay (mouse RNF112T): purified human and mouse RNF112T had relatively weak GTPase activity
GTP hydrolysis assay (RNF112F [4]): showed similar GTPase activity as RNF112T
GTP hydrolysis assay (human RNF112T): purified human and mouse RNF112T had relatively weak GTPase activity

near-full-length Xenopus laevis RNF112 containing residues 60 to 541 (RNF112F) (domain or fragment)
stoichiometry N [5]: 2
